From ChEMBL document CHEMBL1150536, “Synthesis and pharmacological characterization of l-trans-4-tetrazolylproline (ly300020): A novel systemically-active ampa receptor agonist” (Bioorg Med Chem Lett, 1993)
The source made the active and inactive calls. No cut-off for these calls is given here.

Legend:
[1] = molecular target: Glutamate receptor ionotropic, AMPA (Rattus norvegicus, UniProt P19490+P19491+P19492+P19493); test: Tested for the ability to displace [3H]AMPA (5 nM) from Ionotropic glutamate receptor AMPA in rat forebrain membranes; type: cell membranes, Membrane
[2] = molecular target: Glutamate receptor ionotropic, NMDA 2C (Rattus norvegicus, UniProt Q00961); test: Tested for the ability to displace [3H]CGS-19,755 (10 nM) binding in rat forebrain membranes for NMDA receptor; type: cell membranes, Membrane
[3] = molecular target: Glutamate receptor ionotropic, kainate; test: Tested for the ability to displace [3H]kainate (5 nM) binding from Ionotropic glutamate receptor kainate in rat forebrain membranes; type: cell membranes, Membrane
[4] = species: Rattus norvegicus; test: Tested for the ability to antagonize depolarizations induced by NMDA (40 uM), AMPA (40 uM); insignificant; type: functional

Sequence of Glutamate receptor ionotropic, NMDA 2C (Q00961 whole entry): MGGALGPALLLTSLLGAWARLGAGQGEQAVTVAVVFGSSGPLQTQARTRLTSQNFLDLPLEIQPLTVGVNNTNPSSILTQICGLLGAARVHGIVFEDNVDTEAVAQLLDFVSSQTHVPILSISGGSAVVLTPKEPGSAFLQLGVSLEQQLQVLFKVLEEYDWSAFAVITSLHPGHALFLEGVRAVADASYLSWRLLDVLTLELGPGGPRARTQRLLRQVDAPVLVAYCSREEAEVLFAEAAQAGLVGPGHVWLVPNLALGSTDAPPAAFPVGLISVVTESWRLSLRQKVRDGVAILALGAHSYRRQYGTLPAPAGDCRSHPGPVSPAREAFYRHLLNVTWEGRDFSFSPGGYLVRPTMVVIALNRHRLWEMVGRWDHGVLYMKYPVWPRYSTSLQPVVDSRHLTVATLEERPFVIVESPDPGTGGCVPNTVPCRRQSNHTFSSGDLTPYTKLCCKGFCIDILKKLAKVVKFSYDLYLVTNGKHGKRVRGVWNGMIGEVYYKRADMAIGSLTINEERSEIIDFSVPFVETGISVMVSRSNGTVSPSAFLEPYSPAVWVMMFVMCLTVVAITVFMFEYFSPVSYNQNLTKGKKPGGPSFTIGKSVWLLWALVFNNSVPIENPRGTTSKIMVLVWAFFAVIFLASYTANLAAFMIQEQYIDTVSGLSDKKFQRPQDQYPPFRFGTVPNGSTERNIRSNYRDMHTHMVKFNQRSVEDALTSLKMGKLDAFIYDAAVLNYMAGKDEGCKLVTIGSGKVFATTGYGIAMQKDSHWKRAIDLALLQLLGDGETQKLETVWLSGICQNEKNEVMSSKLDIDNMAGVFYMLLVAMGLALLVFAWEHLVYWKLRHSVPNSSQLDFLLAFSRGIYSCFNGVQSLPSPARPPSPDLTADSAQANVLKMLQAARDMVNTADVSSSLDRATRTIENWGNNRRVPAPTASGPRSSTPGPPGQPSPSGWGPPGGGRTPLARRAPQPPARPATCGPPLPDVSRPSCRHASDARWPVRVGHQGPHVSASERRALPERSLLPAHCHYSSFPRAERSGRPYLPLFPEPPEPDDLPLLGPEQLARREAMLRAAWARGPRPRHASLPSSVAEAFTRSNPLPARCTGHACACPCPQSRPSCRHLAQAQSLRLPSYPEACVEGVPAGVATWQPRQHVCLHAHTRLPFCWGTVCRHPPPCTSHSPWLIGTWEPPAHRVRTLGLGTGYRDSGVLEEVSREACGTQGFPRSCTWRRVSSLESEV

SMILES | IC50 [1] [µM] | IC50 [2] [µM] | IC50 [3] [µM] | Effect [4]
O=C(O)[C@H]1C[C@H](c2nnn[nH]2)CN1 | > 100 | > 100 | > 100 | –
O=C(O)[C@@H]1C[C@@H](c2nnn[nH]2)CN1 | 3.38 | > 100 | 61 | inactive
O=C(O)[C@H]1CN[C@H](C(=O)O)C1 | > 100 | > 100 | > 100 | –
